The record followed here is patent US20040121946A9, “Inducing cellular immune responses to her2/neu using peptide and nucleic acid compositions” (priority 2002, published 2004).

Experiment [1] addresses DRB5*0101 (DR2w2β2) (Homo sapiens, UniProt P01903+Q30154). Description: HLA class II peptide binding assay, purified HLA. The conditions noted are these: for DR2w2B2 binding data: unit not given.
Experiment [2] concerns the target DRB1*1501 (DR2w2β1) (Homo sapiens, UniProt P01903+P01911). Briefly: HLA class II peptide binding assay, purified HLA. The following applies: for DR2wB1 binding data: Table XIX, DR supermotif peptides.
The target in experiment [3] is DRB1*0101 (DR1) (Homo sapiens, UniProt P01903+P01911, A100R/D57E/F55L/F60I/F76Y/I96L/L162R/M171V/P40L/Q125E/R42F/V115G/Y59C). Briefly: HLA class II peptide binding assay, purified HLA. The following applies: unit not given.
For experiment [4], the target named is DRB1*0401 (DR4w4) (Homo sapiens, UniProt P01903+P01911, A100K/A169T/F76Y/I96L/K127E/L162R/M171V/N62H/P40V/Q125Y/R42H/S133A/S149N/S66Y/V115G/V209L/W38E). Description: HLA class II peptide binding assay, purified HLA. The following applies: unit not given.
Experiment [5] has as its target DRB1*0701 (DR7) (Homo sapiens, UniProt P01903+P01911, A100R/A102G/A103Q/D57E/D86V/E43K/F76Y/K127E/L162R/M171V/P40G/Q125H/Q99D/R33Q/R42Y/R54Q/S133A/S66F/T210M/V115G/Y107V/Y59L/Y89S). Briefly: HLA class II peptide binding assay, purified HLA. The following applies: unit not given.
Experiment [6] addresses DRB1*1302 (DR6w19) (Homo sapiens, UniProt P01903+P01911, A100E/A169T/K41T/L162R/M171V/P40S/Q125H/Q178H/Q39Y/Q99D/R42S/S66N/T262R/V115G/W38E/Y61H). Description: HLA class II peptide binding assay, purified HLA. The conditions noted are these: for DR6w19 binding data: unit not given.
In experiment [7] the target is DRB1*1101 (DR5w11) (Homo sapiens, UniProt P01903+P01911, A100R/A169T/A87E/I96F/K41T/L162R/M171V/P40S/Q125H/Q178H/Q39Y/Q99D/R42S/S66Y/T262R/V115G/W38E). Briefly: HLA class II peptide binding assay, purified HLA. The following applies: unit not given.
The target of experiment [8] is DRB1*0301 (DR3) (Homo sapiens, UniProt P01903+P01911, A100K/A102G/A103R/A169T/F55Y/I96L/K41T/L162R/M171V/P40S/Q125H/Q178H/Q39Y/R42S/S66N/T106N/T262R/W38E/Y61H). Briefly: HLA class II peptide binding assay, purified HLA. The conditions noted are these: unit not given.
Experiment [9] relates to HLA-DR molecules (DR1, DR4w4, DR7, DRB5*0101, DRB1*1501, DRB1*1101, DRB1*0802, DRB1*1302). Briefly: DR supertype cross-reactive binding. Also on record: species or system human. The conditions noted are these: for No. of DR Alleles Crossbound: Table XXXI; for DR147 Binding / DR147 Cross-binding: number of DR1, DR4w4, DR7 bound; for DR147 Binding: Table XXIX; for DR147 Cross-binding: Table XXVIII; for Broad Binding (5/8): number of the 8 DR alleles bound.

The target in experiment [10] is DRB1*0802 (DR8w2) (Homo sapiens, UniProt P01903+P01911, A100R/A103L/A169T/F76Y/H45Y/I96F/K41T/L162R/M171V/P40S/Q125H/Q178H/Q39Y/Q99D/R218S/R42G/S66Y/V115G/W38E). Description: HLA class II peptide binding assay, purified HLA. The following applies: for DR8w2 binding data: unit not given.
The mark [11] stands for this setting: Table XIX, DR supermotif peptides.
[12] abbreviates: Table XXa, DR 3a motif peptides.

In [1] (setting [11]), `CSCC[C@H](NC(=O)[C@@H](NC(=O)[C@H](Cc1ccc(O)cc1)NC(=O)[C@H](C)NC(=O)[C@H](CCC(=O)O)NC(=O)[C@@H](N)CC(=O)O)C(C)C)C(=O)N[C@@H](C)C(=O)NCC(=O)N[C@H](C(=O)NCC(=O)N[C@@H](CO)C(=O)N1CCC[C@H]1C(=O)N[C@@H](Cc1ccc(O)cc1)C(=O)N[C@H](C(=O)N[C@@H](CO)C(=O)O)C(C)C)C(C)C` showed a DR2w2B2 binding data of 0.0240. Further, the IC50 in [1] (Table XXIX, read-out: DR2w2β2 nM) was determined as 833 nM. Besides, the DR2wB1 binding data in experiment [2] (unit not given) stood at 0.0029. Further, the IC50 in experiment [2] (Table XXIX, read-out: DR2w2β1 nM) was 3.14 µM. The DR1 binding data in experiment [3] (setting [11]) was found to be 0.0500. This compound displayed a DR4w4 binding data in experiment [4] (setting [11]) of 0.2300. In addition, the DR7 binding data in experiment [5] (setting [11]) is on record as 0.2000. This compound showed a DR6w19 binding data in [6] (setting [11]) of 0.0020. Further, the IC50 in experiment [6] (Table XXIX, read-out: DR6w19 nM) came to 1750 nM. The compound also registered a DR5w11 binding data in [7] (setting [11]) of 0.0027. In addition, in [8] (setting [11]), the DR3 binding data is given as 0.0010. In experiment [9], the “No. of DR Alleles Crossbound” value came to 5, the “DR147 Binding” value is reported as 3, the “DR147 Cross-binding” value was 3 and the “Broad Binding (5/8)” value is listed as 5. The DR8w2 binding data in experiment [10] (setting [11]) was 0.0570. In addition, in experiment [10] (Table XXIX, read-out: DR8w2 nM), the IC50 stood at 860 nM.

Consider `CC[C@H](C)[C@H](NC(=O)[C@H](C)NC(=O)[C@@H](NC(=O)[C@@H]1CCCN1C(=O)[C@@H](NC(=O)[C@H](CCCCN)NC(=O)[C@@H](NC(=O)[C@H](CC(N)=O)NC(=O)[C@H](CCC(=O)O)NC(=O)CN)C(C)C)[C@@H](C)CC)C(C)C)C(=O)N[C@@H](CCCCN)C(=O)N[C@H](C(=O)N[C@@H](CC(C)C)C(=O)N[C@@H](CCCNC(=N)N)C(=O)N[C@@H](CCC(=O)O)C(=O)O)C(C)C`, for which the DR2w2B2 binding data in [1] (setting [11]) stood at 0.0034. In experiment [2] (unit not given), this compound came in with a DR2wB1 binding data of 0.0047. The same compound had a DR1 binding data in experiment [3] (setting [11]) of 0.0630. In addition, the DR4w4 binding data in experiment [4] (setting [11]) is recorded as −0.0032. Besides, the DR7 binding data in experiment [5] (setting [11]) was found to be 0.0310. In addition, the DR6w19 binding data in [6] (setting [11]) came out at 0.0004. This compound came in with a DR5w11 binding data in [7] (setting [11]) of −0.0005. This compound gave a DR3 binding data in experiment [8] (setting [11]) of 0.0098. In experiment [9], the “DR147 Binding” value is reported as 2, the “DR147 Cross-binding” value is recorded as 2 and the “Broad Binding (5/8)” value was 2. The DR8w2 binding data in [10] (setting [11]) was determined as 0.0010.

Turning to `CC[C@H](C)[C@H](NC(=O)[C@H](CCCNC(=N)N)NC(=O)[C@H](CCSC)NC(=O)[C@@H](N)CCC(N)=O)C(=O)N[C@@H](CC(C)C)C(=O)N[C@@H](CCCCN)C(=O)N[C@@H](CCC(=O)O)C(=O)N[C@H](C(=O)N[C@@H](CCC(=O)O)C(=O)N[C@@H](CC(C)C)C(=O)N[C@@H](CCCNC(=N)N)C(=O)N[C@@H](CCCCN)C(=O)N[C@H](C(=O)N[C@@H](CCCCN)C(=O)N[C@H](C(=O)O)C(C)C)C(C)C)[C@@H](C)O`, the DR2w2B2 binding data in experiment [1] (setting [12]) worked out at 0.5900. Further, the DR2w2B1 binding data in [2] (Table XXa, DR 3a motif peptides, unit not given) was 0.0150. In addition, in [3] (setting [12]), the DR1 binding data stood at 0.0419. Moreover, the DR4w4 binding data in [4] (setting [12]) is −0.0055. In addition, the DR7 binding data in [5] (setting [12]) was 0.0130. This compound had a DR6w19 binding data in experiment [6] (setting [12]) of 0.0008. The DR5w11 binding data in [7] (setting [12]) was 0.0041. The same compound had a DR3 binding data in experiment [8] (setting [12]) of 0.3200. In experiment [9], the “No. of DR Alleles Crossbound” value worked out at 3. For the same compound, the DR8w2 binding data in experiment [10] (setting [12]) was determined as 0.0064.
